According to US20140100107A1, “TERNARY FUNGICIDAL COMPOSITIONS COMPRISING A DITHIINO-TETRACARBOXAMIDE FUNGICIDE” (BAYER INTELLECTUAL PROPERTY GMBH, priority 2011, published 2014):

System: Alternaria solani
Test: Alternaria test (tomatoes)/preventive
Assay type: in vivo
Conditions: preventive spray, evaluated 3 days after inoculation
Protocol: Alternaria Test (Tomatoes)/Preventive [table] To produce a suitable preparation of active compound, 1 part by weight of active compound is mixed with the stated amounts of solvent and emulsifier, and the concentrate is diluted with water to the desired concentration. To test for preventive activity, young plants are sprayed with the preparation of active compound at the stated rate of application. After the spray coating has dried on, the plants are inoculated with an aqueous spore suspension of Alternaria solani. The plants are then placed in an incubation cabinet at approximately 20° C. and a relative atmospheric humidity of 100%. The test is evaluated 3 days after the inoculation. 0% means an efficacy which corresponds to that of the untreated control while an efficacy of 100% means that no disease is observed.

| Compound | Efficacy in % found (activity found) (application rate 10 ppm a.i.) [%] | Efficacy in % found (activity found) (application rate 1 ppm a.i.) [%] |
| --- | --- | --- |
| Cn1c(=O)c2sc3c(=O)n(C)c(=O)c3sc2c1=O [(1.1), 2,6-dimethyl-1H,5H-[1,4]dithiino[2,3-c:5,6-c′]dipyrrole-1,3,5,7(2H,6H)-tetrone] | 0 | – |
| O=C(NCCc1ncc(C(F)(F)F)cc1Cl)c1ccccc1C(F)(F)F [(2.6), fluopyram] | – | 7 |
| CC(C)(C)C(O)(CCc1ccc(Cl)cc1)Cn1cncn1 (stereo not drawn) [(3.47), tebuconazole] | – | 21 |
